According to US20090214459A1, “METHOD OF USING CERTAIN CATIONIC POLYMERS AS ANTIOXIDANTS OR FREE-RADICAL SCAVENGERS” (priority 2008, published 2009):

System: HaCaT keratinocytes exposed to UVA
Assay: Antioxidant/free-radical scavenging activity with respect to UVA oxidative stress induced on keratinocytes (DCFH-DA fluorescent probe)
Format: cell-based
Conditions: 30 μM, 24 hours pre-incubation, UVA 2 J/cm^2, DCF fluorescence
Protocol: Method for Evaluating the Antioxidant/Free-Radical Scavenging Activity of the Polymers of the Invention with Respect to a UVA Oxidative Stress Induced on Keratinocytes
The technique for evaluating the photoprotection was carried out according to a well-known method (J. of Photochemistry and Photobiology B: Biology 57 (2000) 102-112 TOBI et al: Glutathione modulates the level of free radicals produced in UVA irradiated cells). This technique used a fluorescent probe, a marker for intracellular global oxidative stress, 2′-7′-dichlorofluorescin diacetate (DCFH-DA).
The use of DCFH-DA as a marker of the oxidative stress rests on its physicochemical properties. It is an apolar and non-ionic molecule capable of diffusing through cell membranes. Once inside the cell, DCFH-DA will be hydrolysed by intracellular esterases to a non-fluorescent compound: DCFH or 2,7-dichlorofluorescin. In the presence of activated oxygen species, DCFH is rapidly oxidized to a highly fluorescent compound: DCF or 2,7-dichlorofluorescein.
Three compounds were tested: hexadimethrine chloride (MEXOMERE PO from Chimex corresponding to a polycondensate of formula (I)), citric acid and glycine (0.0001% w/v for the MEXOMERE PO, 30 μM for the citric acid and the glycine). […]
The fluorescence of DCF was evaluated immediately after the exposure to UVA, by spectrofluorimetry (excitation: 480 nm; emission: 530 nm).

For `NCC(=O)O` [glycine], the “level of protection (antioxidant efficacy with respect to UVA oxidative stress)” value was roughly 15%.

For `O=C(O)CC(O)(CC(=O)O)C(=O)O` [Citric acid, citric acid], the “level of protection (antioxidant efficacy with respect to UVA oxidative stress)” value was roughly 18%.
